Measurements as given in EP2878677A1, “Activators of protein phosphatase 5” (Deutsches Zentrum für Neurodegenerative Erkrankungen e.V. …, priority 2013, dated 2015).

Key:
Hsp90/DAF-21 = molecular target: T1, Hsp90/DAF-21 (Caenorhabditis elegans, UniProt Q18688); experiment: coupled regenerative ATPase assay; assay type: biochemical, C. elegans; conditions: concentrations well above the KD; also with AHA-1; 30 °C
T1 construct: made in house
Procedure: (§1) ATPase activity can be measured as described in Gaiser et al., 2009 with an ATPase assay that is carried out as a regenerative assay, wherein ADP produced during the ATPase reaction is recycled to ATP with the help of lactate dehydrogenase, NADH, phosphoenolpyruvate and pyruvate kinase. This changes the absorbance at 340 nm, when NADH is oxidized to NAD^+, giving a sensitive signal for the determination of activity. The change in absorbance at 340 nm that occurs during oxidizing of NADH to NAD^+ is measured by spectroscopic measures. Preferably, said in vitro ATPase assay is carried out at 30 °C. Preferably, said in vitro ATPase assay is carried out in the presence of 3 µM or the chaperone protein. Preferably the concentration of each of the cochaperones present is 5 µM. Preferably, the chaperones and cochaperones used are bacterially expressed proteins.
(§2) The activity of the ATPases Hsc70/HSP-1 and Hsp90/DAF-21 were assessed in a coupled regenerative ATPase assay as described before (Gaiser et al., 2009). Reactions were measured in a Varian Cary 100 spectrophotometer (Agilent Technologies, Boeblingen, Germany) at 30 °C and the depletion of NADH was followed at 340 nm. Chaperone concentration was 3 µM and cochaperones were added, when indicated, at a concentration of 5 µM.

Hsc70/HSP-1 = molecular target: T2, Hsc70/HSP-1 (Caenorhabditis elegans, UniProt P09446); experiment: coupled regenerative ATPase assay; assay type: biochemical, C. elegans; conditions: concentrations well above the KD; also with BAG-1 and DNJ-13; 30 °C
T2 construct: made in house; host or cells: bacteria
T2 sequence (P09446 whole entry): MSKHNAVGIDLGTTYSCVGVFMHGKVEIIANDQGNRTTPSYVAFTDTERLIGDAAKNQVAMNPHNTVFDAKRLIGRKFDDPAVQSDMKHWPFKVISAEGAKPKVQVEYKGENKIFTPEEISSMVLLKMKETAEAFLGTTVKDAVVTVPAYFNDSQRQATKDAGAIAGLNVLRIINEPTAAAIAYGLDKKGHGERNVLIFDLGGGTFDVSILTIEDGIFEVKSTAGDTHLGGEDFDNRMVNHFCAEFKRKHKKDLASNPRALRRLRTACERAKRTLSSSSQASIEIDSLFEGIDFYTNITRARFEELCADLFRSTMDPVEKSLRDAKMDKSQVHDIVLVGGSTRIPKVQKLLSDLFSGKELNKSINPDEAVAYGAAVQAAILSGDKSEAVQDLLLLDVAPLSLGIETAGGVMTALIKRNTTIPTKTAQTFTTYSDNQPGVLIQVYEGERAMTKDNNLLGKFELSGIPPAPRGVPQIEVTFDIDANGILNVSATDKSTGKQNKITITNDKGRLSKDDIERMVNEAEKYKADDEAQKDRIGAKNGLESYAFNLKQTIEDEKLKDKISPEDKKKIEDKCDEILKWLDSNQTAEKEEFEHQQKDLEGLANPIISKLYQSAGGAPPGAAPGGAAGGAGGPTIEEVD
Procedure: as §1, §2

PP5 = molecular target: T3, PP5 (Rattus norvegicus, UniProt P53042); experiment: pNPP-based phosphatase assay with full-length mammalian PP5; assay type: biochemical
T3 construct: The full-length PP5 and its deletion variants were purified and the activity was determined; made in house; host or cells: E. coli BL21-CodonPlus (DE3)-RIL
T3 sequence (P53042 1-499): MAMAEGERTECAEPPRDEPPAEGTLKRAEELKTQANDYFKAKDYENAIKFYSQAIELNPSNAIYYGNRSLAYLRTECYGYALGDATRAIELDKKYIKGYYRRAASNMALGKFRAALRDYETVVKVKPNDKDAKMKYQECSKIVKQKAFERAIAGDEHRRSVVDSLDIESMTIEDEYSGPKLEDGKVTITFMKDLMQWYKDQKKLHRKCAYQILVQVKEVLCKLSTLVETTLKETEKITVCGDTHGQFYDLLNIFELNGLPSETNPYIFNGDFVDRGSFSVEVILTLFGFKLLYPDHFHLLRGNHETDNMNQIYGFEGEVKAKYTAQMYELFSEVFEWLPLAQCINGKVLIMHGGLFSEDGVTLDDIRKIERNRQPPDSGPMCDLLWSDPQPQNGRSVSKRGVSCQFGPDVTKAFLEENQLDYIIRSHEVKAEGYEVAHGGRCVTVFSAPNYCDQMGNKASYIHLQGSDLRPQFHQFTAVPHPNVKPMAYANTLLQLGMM
Procedure: Cloning and purification of PPH-5, Hsp90/DAF-21, CDC-37, YFP-Hsp90/DAF-21 were performed as described before (Gaiser et al., 2009; Gaiser et al., 2011; Gaiser et al., 2010). The purified human phosphatases PP1, PP2A and PP2B/PP3 were purified as described (Baumgrass et al., 2001; Mondragon et al., 1997; Tung et al., 1985). The expression clones of mammalian PP5, PP5-ΔN165 (166-499) and PP5-ΔC8 (1-491) were generated by PCR from plasmid-DNA containing full-length PP5 from Rattus norvegicus. PCR-products were inserted into the pET28b expression plasmid (Merck, Darmstadt, Germany) and verified by DNA sequencing (GATC Biotech, Konstanz, Germany). Proteins were expressed in BL21-CodonPlus (DE3)-RIL bacteria (Stratagene, LaJolla, USA). Bacterial cultures were grown to an OD600 of 0.8 and induced with 1 mM IPTG. Cells were disrupted using a cell disruption machine (IUL Instruments, Freiburg, Germany) and the lysate was loaded onto a HisTrap FF column (GE Healthcare, Freiburg, Germany). Protein was eluted in a buffer containing 400 mM imidazole. Eluted protein was dialyzed and applied to a ResourceQ anion exchange column (GE Healthcare, Freiburg, Germany). Finally, proteins were subjected to size exclusion chromatography on Superdex 200 PrepGrade gel filtration columns (GE Healthcare, Freiburg, Germany). Protein purity was assessed by SDS-PAGE and the molecular mass was determined by a MALDI-TOF/TOF mass spectrometer (Bruker, Bremen, Germany). Proteins were frozen in liquid nitrogen in 40 mM HEPES/KOH, pH 7.5, 20 mM KCl, 1 mM DTT and stored at -80 °C.
Phosphatase activity was followed by the conversion of para-nitrophenyl phosphate (pNPP) to para-nitophenole and absorption of the product at 410 nm (ε: 15100 cm^-1 M^-1) in a Varian Cary 100 spectrophotometer (Agilent Technologies, Boeblingen, Germany). The reaction was measured in 40 mM HEPES/KOH, 20 mM KCl, 5 mM MnCl2, 1 mM DTT, pH 7.5 and 60 mM pNPP at 20 °C if not indicated otherwise. Phosphatase concentration ranged from 50 to 500 nM in the assay. If indicated, Hsp90/DAF-21 peptide was supplemented in the assay at a concentration of 60 µM.
For characterization of the binding site of the P5SAs, deletion constructs of rat PP5 were generated. […] The full-length PP5 and its deletion variants were purified and the activity was determined in the absence and presence of 10 µM and 100 µM (45 µM in case of P5SA-5) of the substances, respectively (Figure 3A-C).

| SMILES | ATPase activity of Hsp90/DAF-21 (Hsp90/DAF-21) | ATPase activity of Hsc70/HSP-1 (Hsc70/HSP-1) | fold activation (PP5; at 143 µM) | fold activation (PP5; at 45 µM) | Kd (PP5; rat PP5, read-out: binding constant (affinity towards the mammalian protein)) | fold activation (PP5; at 714 µM) |
| --- | --- | --- | --- | --- | --- | --- |
| O=c1cc2nc(-c3ccc(F)cc3)nc(SCc3ccc(Br)cc3)n2[nH]1 [P5SA-4] | no effect | no additional effect | 16.4 fold | – | – | – |
| CNC(=O)c1c(NC(=O)COCC(=O)Nc2sc3c(c2C(=O)NC)CCC3)sc2c1CCC2 [P5SA-5] | no effect | no additional effect | – | 22.1 fold | 10 ± 5 µM | – |
| FC(F)(F)c1c2c(nc3c(-c4ccc(Cl)cc4)cnn13)CCC2 [P5SA-1] | no effect | no additional effect | 2.7 fold | – | – | – |
| CN1CCc2c(sc(-n3cccc3)c2CNC(=O)NC23CC4CC(CC(C4)C2)C3)C1 [P5SA-3] | – | – | – | – | – | 7.0 fold |
| COc1ccc(-c2nc(Cc3ccc(Cl)cc3)no2)cc1OC [P5SA-2] | no effect | no additional effect | – | – | – | 13.7 fold |
